Results on three molecules are retold here after ChEMBL document CHEMBL4828714, “Mutasynthesis of Antibacterial Halogenated Actinomycin Analogues” (J Nat Prod, 2021).

In general, MIC refers to the lowest concentration that inhibits growth of the organism. As a reminder, the pIC50 is the IC50 on a negative log10 scale, so that one unit is a factor of ten.

pIC50: −log10 of the molar value. Values after ≈ are worked out from the molar mass of the structure shown.

The subject of assay [1] is Staphylococcus aureus. Description: Antimicrobial activity against Staphylococcus aureus Sau 16162 assessed as inhibition of bacterial growth incubated for 16 to 18 hrs by broth micro dilution technique. It is filed as functional. Conditions: time 16-18 hrs.
Assay [2] deals with Staphylococcus aureus. Kind of assay: Antimicrobial activity against Staphylococcus aureus Sau 6917 assessed as inhibition of bacterial growth incubated for 16 to 18 hrs by broth micro dilution technique. Conditions: time 16-18 hrs. It is filed as functional.
Assay [3] has as its system Staphylococcus aureus. Description: Antimicrobial activity against Staphylococcus aureus Sau 1862 assessed as inhibition of bacterial growth incubated for 16 to 18 hrs by broth micro dilution technique. Conditions: time 16-18 hrs. The class given is functional.
For assay [4], the system named is Staphylococcus aureus. Description: Antimicrobial activity against Staphylococcus aureus Sau 991 assessed as inhibition of bacterial growth incubated for 16 to 18 hrs by broth micro dilution technique. Conditions: time 16-18 hrs. The class given is functional.
In assay [5] the test system is Staphylococcus aureus. Description: Antimicrobial activity against Staphylococcus aureus Sau 718306 assessed as inhibition of bacterial growth incubated for 16 to 18 hrs by broth micro dilution technique. It is filed as functional. Conditions: time 16-18 hrs.
The test system of assay [6] is Staphylococcus aureus. Description: Antimicrobial activity against Staphylococcus aureus Sau 745524 assessed as inhibition of bacterial growth incubated for 16 to 18 hrs by broth micro dilution technique. It is filed as functional. Conditions: time 16-18 hrs.
Assay [7] concerns Staphylococcus aureus. Kind of assay: Antimicrobial activity against Staphylococcus aureus CCAM 3090 assessed as inhibition of bacterial growth incubated for 16 to 18 hrs by broth micro dilution technique. It is filed as functional. Conditions: time 16-18 hrs.
The test system of assay [8] is Staphylococcus aureus. Kind of assay: Antimicrobial activity against Staphylococcus aureus ATCC 29213 assessed as inhibition of bacterial growth incubated for 16 to 18 hrs by broth micro dilution technique. It is filed as functional. Conditions: time 16-18 hrs.
The subject of a further assay is Micrococcus luteus. Description: Antimicrobial activity against Micrococcus luteus ML01 assessed as inhibition of bacterial growth incubated for 16 to 18 hrs by broth micro dilution technique. The class given is functional. Conditions: time 16-18 hrs.
A further assay relates to Enterococcus faecium. Kind of assay: Antimicrobial activity against Enterococcus faecium ATCC 35682 assessed as inhibition of bacterial growth incubated for 16 to 18 hrs by broth micro dilution technique. It is filed as functional. Conditions: time 16-18 hrs.
In another assay the test system is Enterococcus faecalis. Kind of assay: Antimicrobial activity against Enterococcus faecalis ATCC 29212 assessed as inhibition of bacterial growth incubated for 16 to 18 hrs by broth micro dilution technique. It is filed as functional. Conditions: time 16-18 hrs.
The next assay concerns Bacillus thuringiensis. Kind of assay: Antimicrobial activity against Bacillus thuringiensis BT01 assessed as inhibition of bacterial growth incubated for 16 to 18 hrs by broth micro dilution technique. Conditions: time 16-18 hrs. The class given is functional.
The test system of the next assay is Candida albicans. Description: Antimicrobial activity against Candida albicans assessed as inhibition of bacterial growth incubated for 16 to 18 hrs by broth micro dilution technique. It is filed as functional. Conditions: time 16-18 hrs.
Another assay concerns HepG2. Kind of assay: Cytotoxicity against human HepG2 cells assessed as growth inhibition incubated for 68 hrs by MTT assay. It is filed as functional, cell-based. Conditions: HepG2, 68 h. On the technique in general: Tetrazolium assays rely on reduction of a dye to a coloured formazan, in cell work by metabolically active cells.
The test system of a further assay is HeLa. Description: Cytotoxicity against human HeLa cells assessed as growth inhibition incubated for 68 hrs by MTT assay. The class given is functional, cell-based.
The next assay relates to HL-60. Description: Cytotoxicity against human HL-60 cells assessed as growth inhibition incubated for 68 hrs by MTT assay. It is filed as functional, cell-based. Conditions: HL-60, 68 h.
The next assay relates to RKO. Kind of assay: Cytotoxicity against human RKO cells assessed as growth inhibition incubated for 68 hrs by MTT assay. The class given is functional, cell-based.
A further assay concerns A549. Description: Cytotoxicity against human A549 cells assessed as growth inhibition incubated for 68 hrs by MTT assay. It is filed as functional, cell-based. Conditions: A549, 68 h.
In a further assay the test system is MCF7. Description: Cytotoxicity against human MCF7 cells assessed as growth inhibition incubated for 68 hrs by MTT assay. It is filed as functional, cell-based. Conditions: MCF7, 68 h.
Another assay relates to L02. Kind of assay: Cytotoxicity against human L02 cells assessed as growth inhibition incubated for 68 hrs by MTT assay. The class given is cell-based. Conditions: L02, 68 h.
Another assay relates to BEAS-2B. Description: Cytotoxicity against human BEAS-2B cells assessed as growth inhibition incubated for 68 hrs by MTT assay. It is filed as cell-based.

Take `CC(C)[C@H]1C(=O)O[C@H](C)[C@H](NC(=O)c2c3nc4c(C(=O)N[C@@H]5C(=O)N[C@H](C(C)C)C(=O)N6CCC[C@H]6C(=O)N(C)CC(=O)N(C)[C@@H](C(C)C)C(=O)O[C@@H]5C)ccc(I)c4oc-3cc(=O)c2N)C(=O)N[C@H](C(C)C)C(=O)N2CCC[C@H]2C(=O)N(C)CC(=O)N1C`: the MIC turned out to be 4 µg/mL (≈ 2.96 µM) with Staphylococcus aureus [1]; 1 µg/mL (≈ 0.739 µM) in the assay with Staphylococcus aureus [2]; 2 µg/mL (≈ 1.48 µM) with Staphylococcus aureus [3]; 1 µg/mL (≈ 0.739 µM) in the assay on Staphylococcus aureus [4]; 1 µg/mL (≈ 0.739 µM) with Staphylococcus aureus [5]; 0.5 µg/mL (≈ 0.369 µM) with Staphylococcus aureus [6]. Besides, the minimum inhibitory concentration (MIC) with Staphylococcus aureus [7] came to 1 µg/mL (≈ 0.739 µM); with Staphylococcus aureus [8], 1 µg/mL (≈ 0.739 µM); in the assay on Micrococcus luteus, 0.06 µg/mL (≈ 0.0443 µM); with Enterococcus faecium, 0.5 µg/mL (≈ 0.369 µM); in the assay with Enterococcus faecalis it was 2 µg/mL (≈ 1.48 µM); in the assay on Bacillus thuringiensis it was 0.25 µg/mL (≈ 0.185 µM). Besides, the MIC with Candida albicans came out at 0.5 µg/mL (≈ 0.369 µM). Also, the pIC50 in the assay on HepG2 was 7.00; in the assay on HeLa, 5.36; in the assay with HL-60, 7.15; in the assay with RKO it was 7.00; in the assay on A549, 5.05; with MCF7 it was 5.70. In addition, the pIC50 was 5.77 with L02 and 6.30 in the assay with BEAS-2B.
With `CC(C)[C@H]1C(=O)O[C@H](C)[C@H](NC(=O)c2c3nc4c(C(=O)N[C@@H]5C(=O)N[C@H](C(C)C)C(=O)N6CCC[C@H]6C(=O)N(C)CC(=O)N(C)[C@@H](C(C)C)C(=O)O[C@@H]5C)cccc4oc-3c(I)c(=O)c2N)C(=O)N[C@H](C(C)C)C(=O)N2CCC[C@H]2C(=O)N(C)CC(=O)N1C`, the minimal inhibitory concentration (MIC) in the assay on Staphylococcus aureus [1] was 8 µg/mL (≈ 5.91 µM); in the assay with Staphylococcus aureus [2], 4 µg/mL (≈ 2.96 µM); in the assay on Staphylococcus aureus [3], 4 µg/mL (≈ 2.96 µM); in the assay with Staphylococcus aureus [4] it was 4 µg/mL (≈ 2.96 µM); with Staphylococcus aureus [5], 2 µg/mL (≈ 1.48 µM); with Staphylococcus aureus [6] it was 2 µg/mL (≈ 1.48 µM). Moreover, the MIC was 4 µg/mL (≈ 2.96 µM) in the assay on Staphylococcus aureus [7]; 4 µg/mL (≈ 2.96 µM) in the assay with Staphylococcus aureus [8]; 0.06 µg/mL (≈ 0.0443 µM) in the assay with Micrococcus luteus; 2 µg/mL (≈ 1.48 µM) in the assay with Enterococcus faecium; 4 µg/mL (≈ 2.96 µM) with Enterococcus faecalis; 1 µg/mL (≈ 0.739 µM) with Bacillus thuringiensis. For the same molecule, in the assay with Candida albicans, the minimal inhibitory concentration (MIC) turned out to be 2 µg/mL (≈ 1.48 µM). In addition, the pIC50 in the assay on HepG2 is 5.48; in the assay with HeLa, 5.00; in the assay with HL-60 it was 6.40; in the assay with RKO, 5.48; in the assay on A549, 4.47; with MCF7, 4.59. Besides, the pIC50 was 4.68 with L02 and 4.91 with BEAS-2B.
Take `CC(C)[C@H]1C(=O)O[C@H](C)[C@H](NC(=O)c2c3nc4c(C(=O)N[C@@H]5C(=O)N[C@H](C(C)C)C(=O)N6CCC[C@H]6C(=O)N(C)CC(=O)N(C)[C@@H](C(C)C)C(=O)O[C@@H]5C)ccc(I)c4oc-3c(I)c(=O)c2N)C(=O)N[C@H](C(C)C)C(=O)N2CCC[C@H]2C(=O)N(C)CC(=O)N1C`: the MIC was found to be 4 µg/mL (≈ 2.7 µM) with Staphylococcus aureus [1]; 4 µg/mL (≈ 2.7 µM) in the assay with Staphylococcus aureus [2]; 2 µg/mL (≈ 1.35 µM) in the assay on Staphylococcus aureus [3]; 2 µg/mL (≈ 1.35 µM) in the assay on Staphylococcus aureus [4]; 2 µg/mL (≈ 1.35 µM) with Staphylococcus aureus [5]; 2 µg/mL (≈ 1.35 µM) in the assay on Staphylococcus aureus [6]. For the same molecule, the MIC in the assay with Staphylococcus aureus [7] is 4 µg/mL (≈ 2.7 µM); with Staphylococcus aureus [8], 4 µg/mL (≈ 2.7 µM); with Micrococcus luteus it was < 0.06 µg/mL; with Enterococcus faecium, 0.06 µg/mL (≈ 0.0406 µM); in the assay on Enterococcus faecalis, 2 µg/mL (≈ 1.35 µM); with Bacillus thuringiensis, 0.13 µg/mL (≈ 0.0879 µM). In addition, in the assay with Candida albicans, the MIC was 0.13 µg/mL (≈ 0.0879 µM). Moreover, the negative logarithm of the IC50 (pIC50) in the assay on HepG2 is 7.00; in the assay on HeLa it was 6.70; in the assay with HL-60 it was 7.30; in the assay with RKO it was 6.70; in the assay on A549, 5.30; with MCF7, 5.96. Moreover, the negative logarithm of the IC50 (pIC50) was 5.82 in the assay with L02 and 6.30 in the assay with BEAS-2B.
